In US7883846B2, “Heterologous stimulus-gated ion channels and methods of using same” (priority 2002, dated 2011):

Tests used:
[1] = tested on: hippocampal neurons lacking the cognate exogenous receptor; assay: Stimulation of hippocampal neurons lacking the cognate exogenous receptor / untransfected neurons; assay type: cell-based, rat; settings: 50 nM capsaicin, 100 μM menthol, 50 μM ATP; off-diagonal receptor-agonist combinations
rat P2X2 = assay: Pharmacological stimulation of transfected hippocampal neurons, whole-cell patch clamp (P2X2); assay type: cell-based; settings: 50 μM ATP, 1-ml bolus, whole-cell current clamp, 50 μM AP-5 plus 10 μM CNQX
Description: (§1) Three plasmid species were prepared, each species containing a stimulus-gated ion channel (rat TRPV1, rat TRPM8 or rat P2X2) under the control of the CMV promoter in pCI-fluor, a derivative of the mammalian expression vector pCI-neo (Promega). To create pCI-fluor, the aminoglycoside phosphotransferase coding sequence of pCI-neo was replaced with that of EGFP bearing a 20-amino acid N-terminal GAP43 tag (Zemelman, Lee et al. 2002). Rat TRPV1 and rat TRPM8 were expressed as monomers; rat P2X2 subunits were linked into covalent trimers via tandem repeats of the tripeptide -Ser-Gly-Gly-.
Hippocampal neurons, obtained from E19 rats and grown in dissociated cultures, were exposed to 4.2 μg cm^−2 of calcium phosphate-precipitated plasmid DNA as described in Example 1 (pH 7.08) for 20 min to allow plasmid uptake. Transfections were performed on day 8 after plating; immunocytochemical analyses and electrophysiological recordings on days 6-10 after transfection. […]
(§2) Transfected neurons in cultures and infected neurons in brain slices were identified by GAP43-EGFP fluorescence and recorded in the whole-cell patch-clamp configuration. […] Membrane potentials and transmembrane currents were recorded with an Axoclamp-2B amplifier (Axon Instruments) in bridge and continuous single-electrode voltage-clamp mode, respectively, and digitized at 5 kHz without filtering (Digidata 1200, Axon Instruments). […]

TRPV1 = biological target: T1, TRPV1 (Rattus norvegicus, UniProt O35433); assay type: cell-based
T1 construct: expressed in transfected cells; host or cells: dissociated hippocampal neurons from E19 rats, calcium phosphate transfection of pCI-fluor plasmid
T1 sequence (O35433 whole entry): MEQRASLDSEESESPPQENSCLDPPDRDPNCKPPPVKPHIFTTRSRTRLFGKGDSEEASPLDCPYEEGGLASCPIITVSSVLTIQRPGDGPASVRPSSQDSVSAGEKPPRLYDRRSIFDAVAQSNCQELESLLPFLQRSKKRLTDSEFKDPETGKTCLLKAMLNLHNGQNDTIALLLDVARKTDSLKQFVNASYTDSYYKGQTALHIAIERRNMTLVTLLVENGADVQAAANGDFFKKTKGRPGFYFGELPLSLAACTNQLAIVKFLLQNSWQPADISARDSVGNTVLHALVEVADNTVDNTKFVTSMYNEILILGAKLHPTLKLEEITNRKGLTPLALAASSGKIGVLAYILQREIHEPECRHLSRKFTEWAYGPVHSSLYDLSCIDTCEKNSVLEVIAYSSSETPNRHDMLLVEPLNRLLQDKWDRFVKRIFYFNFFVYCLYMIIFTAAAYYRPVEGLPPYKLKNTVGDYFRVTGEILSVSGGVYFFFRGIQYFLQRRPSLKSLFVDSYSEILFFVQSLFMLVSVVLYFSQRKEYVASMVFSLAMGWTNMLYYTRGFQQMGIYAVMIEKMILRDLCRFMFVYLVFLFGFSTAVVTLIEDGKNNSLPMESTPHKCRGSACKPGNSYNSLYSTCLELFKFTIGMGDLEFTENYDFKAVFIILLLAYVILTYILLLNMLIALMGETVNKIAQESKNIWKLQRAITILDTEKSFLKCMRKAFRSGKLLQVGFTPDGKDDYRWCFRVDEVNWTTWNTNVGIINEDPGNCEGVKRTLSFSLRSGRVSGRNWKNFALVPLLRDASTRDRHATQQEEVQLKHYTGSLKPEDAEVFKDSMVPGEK

[2] = biological target: T2, TRPV1 expressed ectopically in nociceptor neurons of C. elegans (Rattus norvegicus, UniProt O35433); settings: wild-type animals lack the behavior; cited from earlier work
T2 construct: host or cells: transgenic C. elegans nociceptor neurons
T2 sequence (O35433 whole entry): as above

rat TRPV1 = biological target: T3, rat TRPV1 (Rattus norvegicus, UniProt O35433); assay: Pharmacological stimulation of transfected hippocampal neurons, whole-cell patch clamp (TRPV1); assay type: cell-based
T3 construct: expressed in transfected cells; host or cells: dissociated hippocampal neurons from E19 rats, calcium phosphate transfection of pCI-fluor plasmid
T3 sequence (O35433 whole entry): as above
Description: as §1, with “-Ser-Gly-Gly-. […]” for “-Ser-Gly-Gly-.”
as §2
(§3) To determine dose-response relationships, the peak amplitudes as well as the integrated charges carried by depolarizing currents at different agonist concentrations were measured under whole-cell voltage clamp, at a constant holding potential of −65 mV.

rat TRPM8 = biological target: T4, rat TRPM8 (Rattus norvegicus, UniProt Q8R455); assay: Pharmacological stimulation of transfected hippocampal neurons, whole-cell patch clamp (TRPM8); assay type: cell-based
T4 construct: expressed in transfected cells; host or cells: dissociated hippocampal neurons from E19 rats, calcium phosphate transfection of pCI-fluor plasmid
T4 sequence (Q8R455 whole entry): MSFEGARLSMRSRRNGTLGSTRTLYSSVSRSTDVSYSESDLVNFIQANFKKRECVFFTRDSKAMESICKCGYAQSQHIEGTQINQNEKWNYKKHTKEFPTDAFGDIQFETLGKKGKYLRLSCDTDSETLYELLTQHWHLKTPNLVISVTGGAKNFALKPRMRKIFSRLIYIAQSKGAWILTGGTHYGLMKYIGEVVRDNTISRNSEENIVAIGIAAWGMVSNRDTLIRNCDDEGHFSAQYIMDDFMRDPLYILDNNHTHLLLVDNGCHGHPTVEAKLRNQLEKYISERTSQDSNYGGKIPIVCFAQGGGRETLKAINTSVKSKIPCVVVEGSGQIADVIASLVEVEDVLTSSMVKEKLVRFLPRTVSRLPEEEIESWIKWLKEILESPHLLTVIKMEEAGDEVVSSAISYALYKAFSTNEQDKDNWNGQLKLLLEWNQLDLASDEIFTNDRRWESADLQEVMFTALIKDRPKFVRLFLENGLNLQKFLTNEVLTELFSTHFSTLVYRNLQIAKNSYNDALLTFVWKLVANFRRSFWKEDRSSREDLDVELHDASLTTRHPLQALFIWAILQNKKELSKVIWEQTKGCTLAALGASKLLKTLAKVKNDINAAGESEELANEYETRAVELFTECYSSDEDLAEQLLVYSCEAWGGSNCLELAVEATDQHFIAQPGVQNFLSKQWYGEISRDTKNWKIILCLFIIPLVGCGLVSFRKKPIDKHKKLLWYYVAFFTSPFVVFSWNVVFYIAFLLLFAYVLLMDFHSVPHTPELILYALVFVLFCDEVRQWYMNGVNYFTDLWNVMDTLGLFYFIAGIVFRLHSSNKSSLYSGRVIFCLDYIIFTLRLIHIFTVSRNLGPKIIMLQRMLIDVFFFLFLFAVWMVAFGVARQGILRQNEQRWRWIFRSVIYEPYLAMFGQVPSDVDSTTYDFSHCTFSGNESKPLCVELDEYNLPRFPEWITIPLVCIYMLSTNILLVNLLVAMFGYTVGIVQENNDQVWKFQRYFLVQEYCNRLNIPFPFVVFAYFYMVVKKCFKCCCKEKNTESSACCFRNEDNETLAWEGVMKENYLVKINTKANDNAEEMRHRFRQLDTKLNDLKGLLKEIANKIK
Description: as §1, with “-Ser-Gly-Gly-. […]” for “-Ser-Gly-Gly-.”
as §2, §3

P2X2 = assay: Photostimulation of P2X2-expressing neurons with caged agonist; assay type: cell-based, rat
Sequence of P2X2 (P49653 whole entry): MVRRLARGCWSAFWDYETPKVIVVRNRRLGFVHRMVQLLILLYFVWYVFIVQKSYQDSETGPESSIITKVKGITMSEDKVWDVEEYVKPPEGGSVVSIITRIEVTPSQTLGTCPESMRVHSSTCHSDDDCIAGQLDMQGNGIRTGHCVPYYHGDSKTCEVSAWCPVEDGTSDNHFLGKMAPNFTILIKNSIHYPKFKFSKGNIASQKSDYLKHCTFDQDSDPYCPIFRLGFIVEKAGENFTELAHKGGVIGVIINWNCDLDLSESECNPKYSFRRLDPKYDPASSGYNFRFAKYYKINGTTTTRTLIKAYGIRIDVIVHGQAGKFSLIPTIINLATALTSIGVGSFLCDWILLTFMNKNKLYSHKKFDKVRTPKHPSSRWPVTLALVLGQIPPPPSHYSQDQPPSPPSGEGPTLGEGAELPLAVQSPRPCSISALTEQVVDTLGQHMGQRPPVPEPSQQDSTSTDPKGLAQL

[3] = 1 mM DMNPE-ATP, 1-s light pulse, mean±s.d., n=16

With `Nc1ncnc2c1ncn2[C@@H]1O[C@H](COP(=O)(O)OP(=O)(O)OP(=O)(O)O)[C@@H](O)[C@H]1O` [ATP] the “stimulation of hippocampal neurons lacking the cognate exogenous receptor” value [1] was “None of the three agonists, including ATP, was able to stimulate” and the “response of membrane potential to a bolus of agonist” value (“response of membrane potential” below) (rat P2X2) was “depolarization, spiking, and repolarization”.
In the case of `COc1cc(COC(=O)Oc2ccc(CNC(=O)CCCC/C=C/C(C)C)cc2OC)c([N+](=O)[O-])cc1OC` [DMNB-capsaicin], the “action potential frequency after light pulse” value (TRPV1) is reported as 15-40 Hz, the “biological activity due to chemical or enzymatic decomposition of the caged compound” value (TRPV1) is reported as “No trace of biological activity” and the “duration of window of activity” value (TRPV1) is reported as 2,651±383 ms. For the same compound, the “lag of onset of activity behind optical stimulus” value (TRPV1) was 5,035±2,061 ms, the “membrane potentials and transmembrane conductances in presence of caged ligand without light” value (TRPV1) was “unaffected” and the “response on repeated photostimulation of the same neuron” value (TRPV1) was “did not attenuate”.
In the case of `COc1cc(CNC(=O)CCCC/C=C/C(C)C)ccc1O` [capsaicin], the “stimulation of hippocampal neurons lacking the cognate exogenous receptor” value [1] is given as “None of the three agonists, including ATP, was able to stimulate”, the “behavior elicited in C. elegans” value [2] is given as “avoidance behaviors” and the “response of membrane potential” value (rat TRPV1; 50 nM capsaicin, 1-ml bolus, whole-cell current clamp, 50 μM AP-5 plus 10 μM CNQX) is given as “depolarization, spiking, and repolarization”. The “peak spike rate (firing frequency)” value (rat TRPV1; current clamp, sliding 200-ms windows, increasing agonist concentration, 382 agonist applications to 60 neurons) was 40 Hz.
In the case of `CC(C)[C@@H]1CC[C@@H](C)C[C@H]1O` [menthol, [1R,2S,5R]-5-methyl-2-[1-methylethyl]cyclo-hexanol], the “stimulation of hippocampal neurons lacking the cognate exogenous receptor” value [1] is reported as “None of the three agonists, including ATP, was able to stimulate”, the “response of membrane potential” value (rat TRPM8; 100 μM menthol, 1-ml bolus, whole-cell current clamp, 50 μM AP-5 plus 10 μM CNQX) is reported as “depolarization, spiking, and repolarization” and the EC50 (rat TRPM8; whole-cell voltage clamp, holding potential −65 mV, results not shown, read-out: half-maximal response) is reported as 150 µM.
For “P3-(1-(4,5-dimethoxy-2-nitrophenyl)ethyl) (DMNPE) ester of ATP [DMNPE-ATP]”, the “duration of window of activity” value (P2X2; [3]) was 2,456±1,273 ms, the “lag period between optical stimulus and window of activity” value (P2X2; [3]) was 1,136±96 ms and the “membrane potentials and transmembrane conductances in presence of caged ligand without light” value (P2X2; 1 mM DMNPE-ATP, whole-cell current- or voltage-clamp) was “unaffected”. For the same compound, the “biological activity due to chemical or enzymatic decomposition of the caged compound” value (P2X2; recordings lasting for >30 min, 1 mM) was “No trace of biological activity”.
